{
  "source": "patent US20140194480A1",
  "about": "“METHODS FOR THE CONTROL OF TERMITES AND ANTS” (SYNGENTA PARTICIPATIONS AG, priority 2011, published 2014)",
  "tested_on": "termites",
  "assay": "Transfer test: termites exposed 6 h on treated sand, then combined with unexposed termites; total termite mortality",
  "type": "in vivo",
  "conditions": "Table 4",
  "description": "Washed sand is treated with the experimental compound in a volatile solvent, so as to deliver the desired concentration w/w in the solvent free sand. Once the solvent has evaporated, the sand is thoroughly mixed and made up with deionised water to 3% w/w moisture content. Ca. 5 g of the so treated sand is placed in the base of a 9 cm Petri dish. 20 worker termites are placed on the treated sand and placed in a dark room under similar temperature to their culture colony. After 6 hours the termites are assessed for mortality and carefully removed from the treated sand, before being placed in a similar Petri dish of untreated sand (3% moisture content). 20 further termites are taken from the same colony and placed in the Petri dish with the exposed termites, along with a section of filter paper ca. 2 cm^2. The lid of the Petri dish is replaced and sealed with laboratory film. The so constructed Petri dish arena are placed in a dark room with a similar temperature to the culture colony. Assessments of total termite mortality, symptomology and behaviour are made at daily intervals.",
  "key": {"[1]": {"conditions": "1.25 ppm, 0 days after treatment"}, "[2]": {"conditions": "1.25 ppm, 1 day after treatment"}, "[3]": {"conditions": "1.25 ppm, 2 days after treatment"}, "[4]": {"conditions": "1.25 ppm, 3 days after treatment"}, "[5]": {"conditions": "1.25 ppm, 6 days after treatment"}, "[6]": {"conditions": "1.25 ppm, 7 days after treatment"}, "[7]": {"conditions": "1.25 ppm, 8 days after treatment"}, "[8]": {"conditions": "1.25 ppm, 9 days after treatment"}, "[9]": {"conditions": "1.25 ppm, 14 days after treatment"}, "[10]": {"conditions": "2.5 ppm, 0 days after treatment"}, "[11]": {"conditions": "2.5 ppm, 2 days after treatment"}, "[12]": {"conditions": "2.5 ppm, 3 days after treatment"}, "[13]": {"conditions": "2.5 ppm, 6 days after treatment"}, "[14]": {"conditions": "2.5 ppm, 7 days after treatment"}, "[15]": {"conditions": "2.5 ppm, 8 days after treatment"}, "[16]": {"conditions": "2.5 ppm, 9 days after treatment"}, "[17]": {"conditions": "2.5 ppm, 14 days after treatment"}},
  "data": [
    {"smiles": "Cc1cc(C2=NCC(c3cc(Cl)cc(Cl)c3)(C(F)(F)F)C2)ccc1C(=O)NC1(C)CSC1", "note": "(racemic) [Compound 1b]", "values": [
      {"measurement": "% mortality of the total termites", "setting": "[1]", "result": 0, "unit": "%"},
      {"measurement": "% mortality of the total termites", "setting": "[2]", "result": 1.5, "unit": "%"},
      {"measurement": "% mortality of the total termites", "setting": "[3]", "result": 3.5, "unit": "%"},
      {"measurement": "% mortality of the total termites", "setting": "[4]", "result": 5.5, "unit": "%"},
      {"measurement": "% mortality of the total termites", "setting": "[5]", "result": 6, "unit": "%"},
      {"measurement": "% mortality of the total termites", "setting": "[6]", "result": 6, "unit": "%"},
      {"measurement": "% mortality of the total termites", "setting": "[7]", "result": 6, "unit": "%"},
      {"measurement": "% mortality of the total termites", "setting": "[8]", "result": 6.5, "unit": "%"},
      {"measurement": "% mortality of the total termites", "setting": "[9]", "result": 6.5, "unit": "%"},
      {"measurement": "% mortality of the total termites", "setting": "[10]", "result": 0, "unit": "%"},
      {"measurement": "% mortality of the total termites", "setting": "2.5 ppm, 1 day after treatment", "result": 10, "unit": "%"},
      {"measurement": "% mortality of the total termites", "setting": "[11]", "result": 19, "unit": "%"},
      {"measurement": "% mortality of the total termites", "setting": "[12]", "result": 22.5, "unit": "%"},
      {"measurement": "% mortality of the total termites", "setting": "[13]", "result": 27, "unit": "%"},
      {"measurement": "% mortality of the total termites", "setting": "[14]", "result": 36, "unit": "%"},
      {"measurement": "% mortality of the total termites", "setting": "[15]", "result": 36.5, "unit": "%"},
      {"measurement": "% mortality of the total termites", "setting": "[16]", "result": 37, "unit": "%"},
      {"measurement": "% mortality of the total termites", "setting": "[17]", "result": 38, "unit": "%"},
      {"measurement": "% mortality of the total termites", "setting": "5 ppm, 0 days after treatment", "result": 0, "unit": "%"},
      {"measurement": "% mortality of the total termites", "setting": "5 ppm, 1 day after treatment", "result": 15, "unit": "%"},
      {"measurement": "% mortality of the total termites", "setting": "5 ppm, 2 days after treatment", "result": 33.5, "unit": "%"},
      {"measurement": "% mortality of the total termites", "setting": "5 ppm, 3 days after treatment", "result": 40.5, "unit": "%"},
      {"measurement": "% mortality of the total termites", "setting": "5 ppm, 6 days after treatment", "result": 52.5, "unit": "%"},
      {"measurement": "% mortality of the total termites", "setting": "5 ppm, 7 days after treatment", "result": 59.5, "unit": "%"},
      {"measurement": "% mortality of the total termites", "setting": "5 ppm, 8 days after treatment", "result": 60, "unit": "%"},
      {"measurement": "% mortality of the total termites", "setting": "5 ppm, 9 days after treatment", "result": 61.5, "unit": "%"},
      {"measurement": "% mortality of the total termites", "setting": "5 ppm, 14 days after treatment", "result": 63.5, "unit": "%"}
    ]},
    {"smiles": "Cc1cc(C2=NOC(c3cc(Cl)cc(Cl)c3)(C(F)(F)F)C2)ccc1C(=O)NC1CSC1", "note": "(racemic) [Compound 5]", "values": [
      {"measurement": "% mortality of the total termites", "setting": "[1]", "result": 0, "unit": "%"},
      {"measurement": "% mortality of the total termites", "setting": "[2]", "result": 3, "unit": "%"},
      {"measurement": "% mortality of the total termites", "setting": "[3]", "result": 12, "unit": "%"},
      {"measurement": "% mortality of the total termites", "setting": "[4]", "result": 12, "unit": "%"},
      {"measurement": "% mortality of the total termites", "setting": "[5]", "result": 20, "unit": "%"},
      {"measurement": "% mortality of the total termites", "setting": "[6]", "result": 24, "unit": "%"},
      {"measurement": "% mortality of the total termites", "setting": "[7]", "result": 25, "unit": "%"},
      {"measurement": "% mortality of the total termites", "setting": "[8]", "result": 26.5, "unit": "%"},
      {"measurement": "% mortality of the total termites", "setting": "[9]", "result": 30, "unit": "%"},
      {"measurement": "% mortality of the total termites", "setting": "[10]", "result": 0, "unit": "%"},
      {"measurement": "% mortality of the total termites", "setting": "2.5 ppm, 1 day after treatment", "result": 15, "unit": "%"},
      {"measurement": "% mortality of the total termites", "setting": "[11]", "result": 31, "unit": "%"},
      {"measurement": "% mortality of the total termites", "setting": "[12]", "result": 32, "unit": "%"},
      {"measurement": "% mortality of the total termites", "setting": "[13]", "result": 42, "unit": "%"},
      {"measurement": "% mortality of the total termites", "setting": "[14]", "result": 46.5, "unit": "%"},
      {"measurement": "% mortality of the total termites", "setting": "[15]", "result": 46.5, "unit": "%"},
      {"measurement": "% mortality of the total termites", "setting": "[16]", "result": 49.5, "unit": "%"},
      {"measurement": "% mortality of the total termites", "setting": "[17]", "result": 56, "unit": "%"},
      {"measurement": "% mortality of the total termites", "setting": "5 ppm, 0 days after treatment", "result": 0, "unit": "%"},
      {"measurement": "% mortality of the total termites", "setting": "5 ppm, 1 day after treatment", "result": 20.5, "unit": "%"},
      {"measurement": "% mortality of the total termites", "setting": "5 ppm, 2 days after treatment", "result": 42, "unit": "%"},
      {"measurement": "% mortality of the total termites", "setting": "5 ppm, 3 days after treatment", "result": 44, "unit": "%"},
      {"measurement": "% mortality of the total termites", "setting": "5 ppm, 6 days after treatment", "result": 52.5, "unit": "%"},
      {"measurement": "% mortality of the total termites", "setting": "5 ppm, 7 days after treatment", "result": 54.5, "unit": "%"},
      {"measurement": "% mortality of the total termites", "setting": "5 ppm, 8 days after treatment", "result": 56.5, "unit": "%"},
      {"measurement": "% mortality of the total termites", "setting": "5 ppm, 9 days after treatment", "result": 56.5, "unit": "%"},
      {"measurement": "% mortality of the total termites", "setting": "5 ppm, 14 days after treatment", "result": 65.5, "unit": "%"}
    ]}
  ]
}
